Data from PMC6203352, “Involvement of VNUT-exocytosis in transient receptor potential vanilloid 4-dependent ATP release from gastrointestinal epithelium” (PLoS ONE, 2018).
Blank lines part the entries; values can stand above or below the compound they belong to.

Experiments:
Type in all cases: cell-based
[1] = target: T1, TRPV4 (Homo sapiens, UniProt Q9HBA0); experiment: fura-2 Ca2+ imaging dose-response in CCD […] cells (endogenous TRPV4), blocked by RN1734
[2] = target: T1, TRPV4; experiment: fura-2 Ca2+ imaging dose-response in CCD […] cells (endogenous TRPV4)
[3] = target: T1, TRPV4; experiment: inhibition of GSK101 ([…])-induced Ca2+ response, fura-2 imaging in CCD […] cells (endogenous TRPV4)

T1 sequence (Q9HBA0 whole entry): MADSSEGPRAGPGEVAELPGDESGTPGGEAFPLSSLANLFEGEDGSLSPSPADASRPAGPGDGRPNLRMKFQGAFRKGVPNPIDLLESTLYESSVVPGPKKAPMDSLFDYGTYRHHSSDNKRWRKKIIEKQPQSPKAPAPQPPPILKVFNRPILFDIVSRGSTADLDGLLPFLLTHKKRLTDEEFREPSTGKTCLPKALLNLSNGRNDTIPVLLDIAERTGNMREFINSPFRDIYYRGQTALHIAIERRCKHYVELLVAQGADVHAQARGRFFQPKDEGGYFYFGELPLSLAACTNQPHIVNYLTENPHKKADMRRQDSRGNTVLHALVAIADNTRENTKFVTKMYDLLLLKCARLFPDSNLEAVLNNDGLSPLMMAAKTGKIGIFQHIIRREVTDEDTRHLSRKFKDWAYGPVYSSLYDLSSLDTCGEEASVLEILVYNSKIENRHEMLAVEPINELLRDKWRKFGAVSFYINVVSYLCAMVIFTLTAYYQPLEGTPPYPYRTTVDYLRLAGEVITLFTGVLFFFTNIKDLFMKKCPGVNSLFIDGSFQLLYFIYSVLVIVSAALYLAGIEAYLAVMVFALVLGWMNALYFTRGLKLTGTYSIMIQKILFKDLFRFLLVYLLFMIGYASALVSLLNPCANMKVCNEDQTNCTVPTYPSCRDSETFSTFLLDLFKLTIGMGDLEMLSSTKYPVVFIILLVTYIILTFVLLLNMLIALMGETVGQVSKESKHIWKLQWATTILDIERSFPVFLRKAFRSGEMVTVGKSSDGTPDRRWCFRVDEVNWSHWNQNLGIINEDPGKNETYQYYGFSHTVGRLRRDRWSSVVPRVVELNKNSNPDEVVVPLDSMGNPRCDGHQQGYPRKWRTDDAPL

EC50 [1]: 111 nM
Compound: CCCCC/C=C\C/C=C\CC1OC1C/C=C\CCCC(=O)OC (stereo not drawn) [8,9-EET methylestel]

Compound: CC(C)C[C@H](NC(=O)c1cc2ccccc2s1)C(=O)N1CCN(C(=O)[C@H](CO)NS(=O)(=O)c2ccc(Cl)cc2Cl)CC1 [GSK101, N-((1S)-1-{[4-((2S)-2-{[(2,4-dichlorophenyl)sulfonyl]amino}-3-hydroxypropanoyl)-1-piperazinyl]carbonyl}-3-methylbutyl)-1-benzothiophene-2-carboxamide]
EC50 [2]: 231 nM

IC50 [3]: 0.703 nM
Compound: CC(C)NCCN(C(C)C)S(=O)(=O)c1ccc(Cl)cc1Cl [RN1734]
